The data set can be described thus: Degradation of ferrate (K2FeO4) in solution at various pH. The class given is physicochemical. As for the experimental part:
FIG. 1 is a profile of the ferrate concentration starting at 0.1% (5 mM) at the native pH of K2FeO4, about 10.7. […] FIGS. 2 and 3 show the ferrate degrading faster at the higher pH's recommended by the Ciampi et al patent(s). Within about 21-46 minutes in the range of pH 11.2-11.8 the ferrate completely degraded. At this higher pH the Fe(OH)3 forms much faster and contributes to the acceleration in degradation.
FIG. 4 discloses a slightly lower pH of 10.4 which was buffered to approximately pH 9 with NaOH. Ferrate was detected in the solution for about four hours.

With K2FeO4, the “time ferrate was detected in the solution” value (pH 10.4, buffered to approximately pH 9 with NaOH (FIG. 4)) is listed as “about four”. Besides, the “time within which the ferrate completely degraded” value (pH 11.2-11.8 (FIGS. 2 and 3)) was in the range of 21 to 46 min. Also, the “time ferrate was present in the solution” value (starting at 0.1% (5 mM), native pH of K2FeO4 about 10.7 (FIG. 1)) is given as “about 220 minutes”.

Source of the values: US20110142959A1, “METHODS, SYSTEMS AND COMPOSITIONS INVOLVED IN THE SYNTHESIS OF NONSTABLE COMPOUNDS” (priority 2009, published 2011).
